Experimental data reported in US11464770B2, “Anticancer pharmaceutical composition” (NATIONAL CANCER CENTER, priority 2016, dated 2022).
Where two headings read alike, the source gives them in different places.

System: colorectal cancer cell lines (e.g. DLD-1, HCT 116, SW620, HCT-15, HCT-8, RKO)
Assay: Cell based assay, cell viability (CellTiter-Glo), colorectal cancer cell lines
Method: Commercially available bladder cancer, prostate cancer, lung cancer, breast cancer, blood cancer, pancreatic cancer, colorectal cancer, brain cancer, neuroblastoma, melanoma, liver cancer, cervical carcinoma, ovarian cancer, renal cancer, and papilloma cell lines were each treated with trypsin-EDTA and cultured, followed by being seeded in each well of a 96 well plate. After 24 hours of treatment at constant temperature, the respective cells were treated with the candidate compound so that a final concentration became 0 to 2 μM. The treated cells were additionally cultured for 72 hours, and cell viability was measured by using an ATP detection method (CellTiter-Glo® Luminescent Cell Viability Assay, Promega).

[1] = Homo sapiens, DLD-1, 72 hours treatment, read-out: IC50, colorectal cancer cell line DLD-1
[2] = Homo sapiens, HCT 116, 72 hours treatment, read-out: IC50, colorectal cancer cell line HCT 116
[3] = Homo sapiens, HCT-8, 72 hours treatment, read-out: IC50, colorectal cancer cell line HCT-8
[4] = Homo sapiens, HCT-15, 72 hours treatment, read-out: IC50, colorectal cancer cell line HCT-15
[5] = Homo sapiens, HT-29, 72 hours treatment, read-out: IC50, colorectal cancer cell line HT-29
[6] = Homo sapiens, LoVo, 72 hours treatment, read-out: IC50, colorectal cancer cell line LoVo
[7] = Homo sapiens, SW480, 72 hours treatment, read-out: IC50, colorectal cancer cell line SW480
[8] = Homo sapiens, SW-620, SW620, 72 hours treatment, read-out: IC50, colorectal cancer cell line SW620
[9] = RKO, 72 hours treatment, read-out: IC50, colorectal cancer cell line RKO
[10] = Homo sapiens, DLD-1 cells, 72 hours treatment, read-out: IC50, colorectal cancer cell line DLD-1
[11] = Homo sapiens, HCT 116 cells, 72 hours treatment, read-out: IC50, colorectal cancer cell line HCT 116
[12] = Homo sapiens, HCT-8 cells, 72 hours treatment, read-out: IC50, colorectal cancer cell line HCT-8
[13] = Homo sapiens, HCT-15 cells, 72 hours treatment, read-out: IC50, colorectal cancer cell line HCT-15
[14] = Homo sapiens, HT-29 cells, 72 hours treatment, read-out: IC50, colorectal cancer cell line HT-29
[15] = Homo sapiens, LoVo cells, 72 hours treatment, read-out: IC50, colorectal cancer cell line LoVo
[16] = Homo sapiens, RKO cells, 72 hours treatment, read-out: IC50, colorectal cancer cell line RKO
[17] = Homo sapiens, SW480 cells, 72 hours treatment, read-out: IC50, colorectal cancer cell line SW480
[18] = Homo sapiens, SW-620, SW620 cells, 72 hours treatment, read-out: IC50, colorectal cancer cell line SW620

Row | SMILES | IC50 [1] [nM] | IC50 [2] [nM] | IC50 [3] [nM] | IC50 [4] [nM] | IC50 [5] [nM] | IC50 [6] [nM] | IC50 [7] [nM] | IC50 [8] [nM] | IC50 [9] [nM] | IC50 [10] [nM] | IC50 [11] [nM] | IC50 [12] [nM] | IC50 [13] [nM] | IC50 [14] [nM] | IC50 [15] [nM] | IC50 [16] [nM] | IC50 [17] [nM] | IC50 [18] [nM]
1 | CC(=O)c1c([S+](C)[O-])[nH]c2c(Cl)ccc(Cl)c2c1=O (stereo not drawn) [Compound 6, 3-acetyl-5,8-dichloro-2-(methylsulfinyl)quinolin-4(1H)-one] | 700 | 1480 | > 2000 | 1700 | > 10000 | > 2000 | > 2000 | 1550 | 1840 |  |  |  |  |  |  |  |  | 
2 | CC(=O)c1c(Sc2ccc(Br)cc2)[nH]c2c(Br)ccc(Cl)c2c1=O [Compound 16, 3-acetyl-8-bromo-2-((4-bromophenyl)thio)-5-chloroquinolin-4(1H)-one] | > 2000 | > 2000 | > 2000 | > 2000 | > 10000 | > 2000 | > 2000 | > 2000 | > 2000 |  |  |  |  |  |  |  |  | 
3 | CSc1[nH]c2ccc(F)cc2c(=O)c1C(C)=O [Compound 8, 1-(6-fluoro-4-hydroxy-2-(methylthio)quinolin-3-yl)ethan-1-one] | > 2000 | > 2000 | > 2000 | > 2000 | > 10000 | > 2000 | > 2000 | > 2000 | > 2000 |  |  |  |  |  |  |  |  | 
4 | CC(=O)c1c(SCc2ccc(Cl)cc2)[nH]c2c(Br)ccc(Cl)c2c1=O [Compound 10, 3-acetyl-8-bromo-5-chloro-2-((4-chlorobenzyl)thio)quinolin-4(1H)-one] | > 2000 | > 2000 | > 2000 | > 2000 | > 10000 | > 2000 | > 2000 | > 2000 | > 2000 |  |  |  |  |  |  |  |  | 
5 | Cc1cc(C[S+]([O-])c2[nH]c3c(Cl)ccc(Cl)c3c(=O)c2C(=O)c2ccccc2)no1 (stereo not drawn) [Compound 88, 3-benzoyl-5,8-dichloro-2-(((5-methylisoxazol-3-yl)methyl)sulfinyl)quinolin-4(1H)-one] |  |  |  |  |  |  |  |  |  | > 2000 | > 2000 | > 2000 | > 2000 | > 10000 | > 2000 | > 2000 | > 2000 | > 2000
6 | CC(=O)c1c([S+]([O-])Cc2ccc(C(=O)c3ccccc3)cc2)[nH]c2c(Br)ccc(Cl)c2c1=O (stereo not drawn) [Compound 63, 3-acetyl-2-((4-benzoylbenzyl)sulfinyl)-8-bromo-5-chloroquinolin-4(1H)-one] | > 2000 | > 2000 | > 2000 | > 2000 | > 10000 | > 2000 | > 2000 | > 2000 | > 2000 |  |  |  |  |  |  |  |  | 
7 | CC(=O)c1c([S+]([O-])Cc2ccc(N)nc2)[nH]c2c(Br)ccc(Cl)c2c1=O (stereo not drawn) [Compound 100, 3-acetyl-2-(((6-aminopyridin-3-yl)methyl)sulfinyl)-8-bromo-5-chloroquinolin-4(1H)-one] |  |  |  |  |  |  |  |  |  | > 2000 | > 2000 | > 2000 | > 2000 | > 10000 | > 2000 | > 2000 | > 2000 | > 2000
8 | CC(=O)c1c([S+]([O-])Cc2ccc(NS(C)(=O)=O)cc2)[nH]c2c(Br)ccc(Cl)c2c1=O (stereo not drawn) [Compound 103, N-(4-(((3-acetyl-8-bromo-5-chloro-4-oxo-1,4-dihydroquinolin-2-yl)sulfinyl)methyl)phenyl)methane-sulfonamide] |  |  |  |  |  |  |  |  |  | > 2000 | > 2000 | > 2000 | > 2000 | > 10000 | > 2000 | > 2000 | > 2000 | > 2000
9 | COCCNc1ccc(C[S+]([O-])c2[nH]c3c(Br)ccc(Cl)c3c(=O)c2C(C)=O)cn1 (stereo not drawn) [Compound 105, 3-acetyl-8-bromo-5-chloro-2-(((6-((2-methoxyethyl)amino)pyridin-3-yl)methyl)sulfinyl)quinolin-4(1H)-one] |  |  |  |  |  |  |  |  |  | > 2000 | > 2000 | > 2000 | > 2000 | > 10000 | > 2000 | > 2000 | > 2000 | > 2000
10 | COc1cccc2[nH]c([S+]([O-])Cc3cc(C)on3)c(C(C)=O)c(=O)c12 (stereo not drawn) [Compound 94, 3-acetyl-5-methoxy-2-(((5-methylisoxazol-3-yl)methyl)sulfinyl)quinolin-4(1H)-one] |  |  |  |  |  |  |  |  |  | > 2000 | > 2000 | > 2000 | > 2000 | > 10000 | > 2000 | > 2000 | > 2000 | > 2000
11 | CC(=O)c1c(S)[nH]c2c(Br)ccc(Cl)c2c1=O [Compound 62, 3-acetyl-8-bromo-5-chloro-2-mercaptoquinolin-4(1H)-one] | > 2000 | > 2000 | > 2000 | > 2000 | > 10000 | > 2000 | > 2000 | > 2000 | > 2000 |  |  |  |  |  |  |  |  | 
12 | CC(=O)c1c([S+]([O-])CN2C(=O)c3ccccc3C2=O)[nH]c2c(Cl)ccc(Cl)c2c1=O (stereo not drawn) [Compound 90, 2-(((3-acetyl-5,8-dichloro-4-oxo-1,4-dihydroquinolin-2-yl)sulfinyl)methyl)isoindoline-1,3-dione] |  |  |  |  |  |  |  |  |  | > 2000 | > 2000 | > 2000 | > 2000 | > 10000 | > 2000 | > 2000 | > 2000 | > 2000
13 | CC(=O)c1c([S+](C)[O-])n(Cc2ccc(F)c(Cl)c2)c2c(Br)ccc(Cl)c2c1=O (stereo not drawn) [Compound 22, 3-acetyl-8-bromo-5-chloro-1-(3-chloro-4-fluorobenzyl)-2-(methylsulfinyl)quinolin-4(1H)-one] | > 2000 | > 2000 | > 2000 | > 2000 | > 10000 | > 2000 | > 2000 | > 2000 | > 2000 |  |  |  |  |  |  |  |  | 
14 | CC(=O)c1c(SCc2cccc(F)c2)[nH]c2c(Br)ccc(Cl)c2c1=O [Compound 49, 3-acetyl-8-bromo-5-chloro-2-((3-fluorobenzyl)thio)quinolin-4(1H)-one] | > 2000 | > 2000 | > 2000 | > 2000 | > 10000 | > 2000 | > 2000 | > 2000 | > 2000 |  |  |  |  |  |  |  |  | 
15 | CC(=O)c1c(SC(C)C)[nH]c2c(Br)ccc(Cl)c2c1=O [Compound 24, 3-acetyl-8-bromo-5-chloro-2-(isopropylthio)quinolin-4(1H)-one] | > 2000 | > 2000 | > 2000 | > 2000 | > 10000 | > 2000 | > 2000 | > 2000 | > 2000 |  |  |  |  |  |  |  |  | 
16 | CC(=O)c1c([S+](C)[O-])n(S(=O)(=O)c2ccc(C(C)(C)C)cc2)c2c(Br)ccc(Cl)c2c1=O (stereo not drawn) [Compound 42, 3-acetyl-8-bromo-1-((4-(tert-butyl)phenyl)sulfonyl)-5-chloro-2-(methylsulfinyl)quinolin-4(1H)-one] | 1960 | > 2000 | > 2000 | > 2000 | > 10000 | > 2000 | > 2000 | > 2000 | > 2000 |  |  |  |  |  |  |  |  | 
17 | CC(=O)c1c([S+](C)[O-])n(S(=O)(=O)C(F)(F)F)c2c(Br)ccc(Cl)c2c1=O (stereo not drawn) [Compound 36, 3-acetyl-8-bromo-5-chloro-2-(methylsulfinyl)-1-((trifluoromethyl)sulfonyl)quinolin-4(1H)-one] | > 2000 | > 2000 | > 2000 | > 2000 | > 10000 | > 2000 | > 2000 | > 2000 | > 2000 |  |  |  |  |  |  |  |  | 
18 | CSc1[nH]c2c(Br)ccc(Cl)c2c(=O)c1C(C)=O [Compound 2, 3-acetyl-8-bromo-5-chloro-2-(methylthio)quinolin-4(1H)-one] | > 2000 | > 2000 | > 2000 | > 2000 | > 10000 | > 2000 | > 2000 | > 2000 | > 2000 |  |  |  |  |  |  |  |  | 
19 | CSc1c(C(C)=O)c(=O)c2c(Cl)ccc(Br)c2n1S(=O)(=O)c1ccc(Cl)cc1 [Compound 37, 3-acetyl-8-bromo-5-chloro-1-((4-chlorophenyl)sulfonyl)-2-(methylthio)quinolin-4(1H)-one] | > 2000 | > 2000 | > 2000 | > 2000 | > 10000 | > 2000 | > 2000 | > 2000 | > 2000 |  |  |  |  |  |  |  |  | 
20 | Cc1cc(C[S+]([O-])c2[nH]c3c(Cl)ccc(Cl)c3c(=O)c2C(=O)C2CC2)no1 (stereo not drawn) [Compound 97, 5,8-dichloro-3-(cyclopropanecarbonyl)-2-(((5-methylisoxazol-3-yl)methyl)sulfinyl)quinolin-4(1H)-one] |  |  |  |  |  |  |  |  |  | 1360 | 1250 | 1350 | 1420 | > 10000 | 1520 | 1270 | 1690 | 1100
21 | COc1cccc2[nH]c([S+]([O-])Cc3ccc(S(F)(F)(F)(F)F)cc3)c(C(C)=O)c(=O)c12 (stereo not drawn) [Compound 93, 3-acetyl-5-methoxy-2-((4-(pentafluoro--sulfanyl)benzyl)sulfinyl)quinolin-4(1H)-one] |  |  |  |  |  |  |  |  |  | > 2000 | > 2000 | > 2000 | > 2000 | > 10000 | > 2000 | > 2000 | > 2000 | > 2000
22 | CC(=O)c1c(SCc2ccccc2)nc2c(Br)ccc(Cl)c2c1O [Compound 52, 1-(2-(benzylthio)-8-bromo-5-chloro-4-hydroxyquinolin-3-yl)ethan-1-one] | > 2000 | > 2000 | > 2000 | > 2000 | > 10000 | > 2000 | > 2000 | > 2000 | > 2000 |  |  |  |  |  |  |  |  | 
23 | CC(=O)c1c([S+]([O-])Cc2ccccc2)n(C(=O)c2ccc(Br)cc2)c2c(Br)ccc(Cl)c2c1=O (stereo not drawn) [Compound 20, 3-acetyl-2-(benzylsulfinyl)-8-bromo-1-(4-bromobenzoyl)-5-chloroquinolin-4(1H)-one] | > 2000 | > 2000 | > 2000 | > 2000 | > 10000 | > 2000 | > 2000 | > 2000 | > 2000 |  |  |  |  |  |  |  |  | 
